The values below come from patent US10703756B2, “Pyrrolo[2,3-D]pyrimidinyl, pyrrolo[2,3-B]pyrazinyl, pyrrolo[2,3-B]pyridinyl acrylamides and epoxides thereof” (Pfizer Inc., priority 2015, dated 2020).

The target in series [1] is T1, JAK3 enzyme (Homo sapiens, UniProt P52333).
T1 sequence (P52333 1-1124): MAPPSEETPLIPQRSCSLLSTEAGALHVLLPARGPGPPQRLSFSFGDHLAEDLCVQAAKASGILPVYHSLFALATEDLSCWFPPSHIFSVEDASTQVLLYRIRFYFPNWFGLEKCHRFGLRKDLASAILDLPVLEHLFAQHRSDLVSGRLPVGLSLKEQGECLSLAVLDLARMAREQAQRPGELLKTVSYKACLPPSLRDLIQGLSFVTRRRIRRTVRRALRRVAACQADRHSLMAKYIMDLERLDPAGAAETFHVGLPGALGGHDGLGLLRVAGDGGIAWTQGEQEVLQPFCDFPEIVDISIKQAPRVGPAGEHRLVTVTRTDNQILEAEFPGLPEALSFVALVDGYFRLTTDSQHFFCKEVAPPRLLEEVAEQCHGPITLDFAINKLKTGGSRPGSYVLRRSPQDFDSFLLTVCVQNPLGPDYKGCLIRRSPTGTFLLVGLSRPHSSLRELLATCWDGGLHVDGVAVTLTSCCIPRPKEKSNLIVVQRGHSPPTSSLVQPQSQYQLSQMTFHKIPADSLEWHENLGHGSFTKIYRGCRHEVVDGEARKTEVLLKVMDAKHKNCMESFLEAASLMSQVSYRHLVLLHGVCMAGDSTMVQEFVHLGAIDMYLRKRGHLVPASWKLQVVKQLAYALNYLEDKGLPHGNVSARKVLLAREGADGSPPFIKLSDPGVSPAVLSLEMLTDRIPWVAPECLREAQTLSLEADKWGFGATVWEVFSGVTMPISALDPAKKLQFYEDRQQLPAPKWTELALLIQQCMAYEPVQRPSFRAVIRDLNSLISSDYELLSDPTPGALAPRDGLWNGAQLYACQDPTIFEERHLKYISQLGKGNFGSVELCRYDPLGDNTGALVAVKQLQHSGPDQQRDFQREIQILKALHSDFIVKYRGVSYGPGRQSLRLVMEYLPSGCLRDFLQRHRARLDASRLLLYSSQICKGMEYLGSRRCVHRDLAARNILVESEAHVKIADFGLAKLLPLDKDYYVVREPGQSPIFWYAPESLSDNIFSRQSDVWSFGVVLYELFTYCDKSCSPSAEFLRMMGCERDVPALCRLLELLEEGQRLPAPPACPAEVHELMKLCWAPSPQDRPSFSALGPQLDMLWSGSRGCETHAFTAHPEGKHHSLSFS
Description: JAK Caliper Enzyme Assay at 4 μM ATP. It is filed as biochemical. Put shortly: (§1)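 Peptide phosphorylation by the kinase, adjusted to 20%-30% conversion, is measured by microfluidic separation of substrate and product on a Caliper LC3000. Compounds run as 11-point half-log series from a 600 μM DMSO top concentration.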

The target in series [2] is T1, JAK3 enzyme. In words: JAK Caliper Enzyme Assay at 1 mM ATP. Type of series: biochemical. Put shortly: as §1
The nature of series [3]: Stability of JAK3 Covalent Inhibitors in Human Whole Blood. To be noted: both sexes, 1 μM test compound, 37° C., 180 min incubation, read-out: Human blood stability t1/2. It is filed as in vitro ADME. The method, then: Stability of JAK3 Covalent Inhibitors in Rat and Human Whole Blood
Rat blood was collected from 3 male Sprague-Dawley rats (200-250 g, Charles River Laboratories) and pooled for each study. Human blood was collected from healthy subjects at the Occupational Health & Wellness Center at Pfizer, Groton, Conn. and pooled for each study. Both rat and human blood was collected freshly into K2-EDTA tubes and kept on ice. An aliquot of the blood was transferred to microtubes and pre-warmed for 10 min at 37° C. using a heat block. The test compound was then added (1 μM final concentration) and the incubation was continued for 180 min at 37° C. in duplicates. An aliquot of the incubation mixture was removed at designated time points during the course of the incubation, mixed with an aliquot of acetonitrile containing an internal standard, vortexed and centrifuged. The resulting supernatants were removed and subjected to LC-MS/MS analyses to determine parent compound concentrations. Peak area ratios of the parent compound vs the internal standard were used to determine the % of parent compound remaining vs incubation time.

The subject of series [4] is IL-15 induced P-STAT5 in human PBMC. Description: PBMC IL-15 Induced P-STAT5. Type of series: cell-based. The conditions noted are these: human PBMC, IL-15 final 41 ng/mL; read-out: PBMC IL15_pSTAT5_IC50. Put shortly:
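Flow cytometry gated on total lymphocytes measured STAT5 staining (Alexa Fluor 647 antibody, overnight, 4 °C) in fixed, methanol-permeabilised human PBMC. Cells had received compound for 15 min at 37 °C (0.2% DMSO final), followed by 41 ng/mL final human IL-15 for 15 min.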

As to `C=CC(=O)N1CCCC1COc1cnc2[nH]cc(C(=O)N[C@@H](C)COC)c2n1` (mixture of isomers) [Example 7, Racemic-2-[(1-acryloylpyrrolidin-2-yl)methoxyl]-N-[(2S)-1-methoxypropan-2-yl]-5H-pyrrolo[2,3-b]pyrazine-7-carboxamide], the results for the IC50 (against JAK3 enzyme [1]; against JAK3 enzyme [2]; in series [4]) were 1.49 nM, 106 nM and 403 nM, respectively. Moreover, in series [3], the half-life at 1 μM was found to be 2.63 h.

`C=CC(=O)N1CC[C@H](Nc2cnc3[nH]cc(C(=O)NCC)c3n2)[C@@H](O)C1` (racemic) [Example 31, Trans-racemic-2-{[(3S,4S)-1-acryloyl-3-hydroxypiperidin-4-yl]amino}-N-ethyl-5H-pyrrolo[2,3-b]pyrazine-7-carboxamide]: the IC50 was determined as 0.211 nM against JAK3 enzyme [1], 47 nM on JAK3 enzyme [2] and 3870 nM in series [4]. The half-life at 1 μM in series [3] was determined as 4.9 h.

Regarding `C=CC(=O)N1CCCC(Nc2cnc3[nH]cc(C(=O)NCC)c3n2)C1` (racemic) [Example 34, Racemic-2-[(1-acryloylpiperidin-3-yl)amino]-N-ethyl-5H-pyrrolo[2,3-b]pyrazine-7-carboxamide], the values for the IC50 (at JAK3 enzyme [1]; at JAK3 enzyme [2]; in series [4]) were 0.501 nM, 105 nM and 580 nM, respectively. Besides, in series [3], the half-life at 1 μM is above 6 h.

In the case of `C=CC(=O)N1CC[C@@H](Nc2cnc3[nH]cc(C(=O)NCC)c3n2)[C@H](C)C1` (racemic) [Example 43, Trans-racemic-2-{[(3R,4R)-1-acryloyl-3-methylpiperidin-4-yl]amino}-N-ethyl-5H-pyrrolo[2,3-b]pyrazine-7-carboxamide], the IC50 against JAK3 enzyme [1] turned out to be 0.258 nM; at JAK3 enzyme [2] it was 50 nM; in series [4], 411 nM. Besides, the half-life at 1 μM in series [3] came out at 3.73 h.

Take `C=CC(=O)N1CCCC(Oc2cnc3[nH]cc(C(=O)N[C@@H](C)COC)c3n2)C1` (mixture of isomers) [Example 51, Racemic-2-[(1-acryloylpiperidin-3-yl)oxy]-N-[(2S)-1-methoxypropan-2-yl]-5H-pyrrolo[2,3-b]pyrazine-7-carboxamide]: the results for the IC50 (against JAK3 enzyme [1]; on JAK3 enzyme [2]; in series [4]) were 2.93 nM, 212 nM and 999 nM, respectively. Besides, the half-life at 1 μM in series [3] was determined as 2.65 h.

With `C=CC(=O)N1CC[C@H](COc2cnc3[nH]cc(C(=O)N[C@@H](C)COC)c3n2)C1` (single isomer, unassigned) [Example 11], the IC50 at JAK3 enzyme [1] was found to be 1.61 nM; against JAK3 enzyme [2], 308 nM. Further, in series [3], the half-life at 1 μM was determined as 3.46 h.

With `C=CC(=O)N1C[C@H](Nc2cnc3[nH]cc(C(=O)N[C@@H](C)COC)c3n2)CC[C@@H]1C` (single isomer, unassigned) [Example 66], the IC50 against JAK3 enzyme [1] amounted to 6.21 nM; against JAK3 enzyme [2], 412 nM. Further, in series [3], the half-life at 1 μM was above 6 h.

For `C=CC(=O)N1C[C@@H](Nc2cnc3[nH]cc(C(=O)N[C@H](C)COC)c3n2)CC[C@H]1C` (single isomer, unassigned) [Example 70], the IC50 at JAK3 enzyme [1] is 9.1 nM; against JAK3 enzyme [2], 1390 nM. The half-life at 1 μM in series [3] was above 6 h.

The molecule `C=CC(=O)N1C[C@H](Oc2cnc3[nH]cc(C(=O)N[C@@H](C)COC)c3n2)CC[C@@H]1C` (single isomer, unassigned) [Example 81] returned an IC50 against JAK3 enzyme [2] of 76.9 nM. In addition, in series [3], the half-life at 1 μM was above 6 h.

As for `C=CC(=O)N1CC[C@H](Nc2cnc3c(n2)c(C(=O)NCC)cn3C)C[C@@H]1C` (single isomer, unassigned) [Example 350], the IC50 is 32.1 nM against JAK3 enzyme [1] and 4370 nM against JAK3 enzyme [2]. In addition, in series [3], the half-life at 1 μM is above 6 h.

Consider `C=CC(=O)N1CC[C@@H](Nc2cnc3c(n2)c(C(=O)NCC)cn3C)C[C@H]1C` (single isomer, unassigned) [Example 351], for which the IC50 worked out at 2.88 nM on JAK3 enzyme [1] and 838 nM at JAK3 enzyme [2]. Also, the half-life at 1 μM in series [3] stood at 5.52 h.

As for `C=CC(=O)N1CCC[C@@H](Oc2cnc3[nH]cc(C(=O)N[C@@H](C)COC)c3n2)C1` [Example 49, 2-{[(3R)-1-acryloylpiperidin-3-yl]oxy}-N-[(2S)-1-methoxypropan-2-yl]-5H-pyrrolo[2,3-b]pyrazine-7-carboxamide], the values for the IC50 against JAK3 enzyme [1] and against JAK3 enzyme [2] were 27.1 nM and 2100 nM, respectively. Also, the half-life at 1 μM in series [3] came to 3.27 h.

`C=CC(=O)N(C)C1CN(c2cnc3[nH]cc(C(=O)N[C@@H](C)COC)c3n2)C1` [Example 85, 2-{3-[acryloyl(methyl)amino]azetidin-1-yl}-N-[(2S)-1-methoxypropan-2-yl]-5H-pyrrolo[2,3-b]pyrazine-7-carboxamide]: the IC50 amounted to 2.91 nM at JAK3 enzyme [1] and 467 nM against JAK3 enzyme [2]. The half-life at 1 μM in series [3] was found to be 1.38 h.

In the case of `C=CC(=O)N1CCC(Oc2cnc3[nH]cc(-c4n[nH]c(C)n4)c3n2)CC1` [Example 115, 1-(4-{[7-(5-Methyl-1H-1,2,4-triazol-3-yl)-5H-pyrrolo[2,3-b]pyrazin-2-yl]oxy}piperidin-1-yl)prop-2-en-1-one], the IC50 on JAK3 enzyme [1] came to 8.31 nM; against JAK3 enzyme [2] it was 929 nM. In series [3], the half-life at 1 μM stood at 3.77 h.

Turning to `C=CC(=O)N1CCC(Oc2cnc3[nH]cc(-c4nnc[nH]4)c3n2)CC1` [Example 120, 1-(4-{[7-(4H-1,2,4-Triazol-3-yl)-5H-pyrrolo[2,3-b]pyrazin-2-yl]oxy}piperidin-1-yl)prop-2-en-1-one], the IC50 against JAK3 enzyme [1] came out at 4.48 nM; against JAK3 enzyme [2], 725 nM. Further, in series [3], the half-life at 1 μM was above 6 h.

As to `C=CC(=O)N1CCC(Oc2cnc3[nH]cc(-c4ncnn4CC)c3n2)CC1` [Example 121, 1-(4-((7-(1-ethyl-1H-1,2,4-triazol-5-yl)-5H-pyrrolo[2,3-b]pyrazin-2-yl)oxy)piperidin-1-yl)prop-2-en-1-one], the IC50 against JAK3 enzyme [1] is 6.96 nM; on JAK3 enzyme [2], 921 nM. For the same molecule, the half-life at 1 μM in series [3] turned out to be 2.67 h.

As for `C=CC(=O)N1CCC(Oc2cnc3[nH]cc(-c4nnco4)c3n2)CC1` [Example 128, 1-(4-{[7-(1,3,4-Oxadiazol-2-yl)-5H-pyrrolo[2,3-b]pyrazin-2-yl]oxy}piperidin-1-yl)propan-2-en-1-one], the values for the IC50 on JAK3 enzyme [1] and at JAK3 enzyme [2] were 6.67 nM and 787 nM, respectively. Also, the half-life at 1 μM in series [3] is above 6 h.

With `C=CC(=O)N1CCC(Nc2cnc3[nH]cc(C(=O)NCCC)c3n2)CC1` [Example 170, 2-[(1-acryloylpiperidin-4-yl)amino]-N-propyl-5H-pyrrolo[2,3-b]pyrazine-7-carboxamide], the IC50 on JAK3 enzyme [1] turned out to be 0.508 nM; against JAK3 enzyme [2], 4 nM. Besides, the half-life at 1 μM in series [3] is 5.13 h.

On to `C=CC(=O)N1CCC(C)(Nc2cnc3[nH]cc(C(=O)NCCCC(F)(F)F)c3n2)CC1` [Example 333, 2-[(1-acryloyl-4-methylpiperidin-4-yl)amino]-N-(4,4,4-trifluorobutyl)-5H-pyrrolo[2,3-b]pyrazine-7-carboxamide], for which the IC50 amounted to 0.307 nM against JAK3 enzyme [1], 44 nM at JAK3 enzyme [2] and 774 nM in series [4].

`C=CC(=O)N1CCC(C)(Nc2cnc3[nH]cc(C(=O)N[C@H](C)COC)c3n2)CC1` [Example 335, 2-[(1-acryloyl-4-methylpiperidin-4-yl)amino]-N-[(2R)-1-methoxypropan-2-yl]-5H-pyrrolo[2,3-b]pyrazine-7-carboxamide]: the IC50 is 0.262 nM on JAK3 enzyme [1], 57 nM against JAK3 enzyme [2] and 849 nM in series [4].
